In patent US20250312499A1, “KISSPEPTIN RECEPTOR (KISS1R) TARGETED THERAPEUTICS AND USES THEREOF” (priority 2024, published 2025):
pKi: −log10 of the molar value. Numbered stars: 1 amine (or outer) side, 2 acyl side, 3 side chain; on linkers, the order of the positions; unused ones are H or OH. Square brackets hold non-standard residues; d marks the D form. Peptide text beside a SMILES is read from it. * marks the point of attachment. DOTA = O=C(O)CN1CCN(CC(=O)O)CCN(CC(=O)*)CCN(CC(=O)O)CC1; Ala(9-anthryl) = N[C@@H](Cc1c2ccccc2cc2ccccc12)C(=O)O; Gly(N-(3-F-4-Me-benzyl)) = Cc1ccc(CNCC(=O)*)cc1F; Bpa = N[C@@H](Cc1ccc(C(=O)c2ccccc2)cc1)C(=O)O; Gly(Nα-4-MeO-benzyl) = COc1ccc(CNCC(=O)*)cc1; Api(1-amidino) = N=C(N)N1CCC(N)(C(=O)O)CC1; Bip = N[C@@H](Cc1ccc(-c2ccccc2)cc1)C(=O)O; Phe(4-CN) = N#Cc1ccc(C[C@H](N)C(=O)O)cc1; 2Nal = N[C@@H](Cc1ccc2ccccc2c1)C(=O)O; d2Nal = N[C@H](Cc1ccc2ccccc2c1)C(=O)O; X1 = O=C(CN1CCC(N[*:1])CC1)[*:2]; dCya = N[C@H](CS(=O)(=O)O)C(=O)O; 4Pal = N[C@@H](Cc1ccncc1)C(=O)O; Cha = N[C@@H](CC1CCCCC1)C(=O)O; Nle = CCCC[C@H](N)C(=O)O; Octanoyl = CCCCCCCC(=O)*; Api = NC1(C(=O)O)CCNCC1; Ahx = NCCCCCC(=O)O; azaGly = NNC(=O)O; Sar = CNCC(=O)O

The compounds below were run against human kisspeptin receptor (Homo sapiens (Human), UniProt Q969F8) (assay: Human KISS1R binding assay (membrane competition binding)). Conditions: 90 min at room temperature; competition with 0.2 nM [125I]-metastin (45-54); Flp-In T-Rex 293 kisspeptin membranes; metal complexes nonradioactive Ga, In, Lu; read-out: hKiSSR Binding Ki (90 min).
How it was run: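 Radioligand competition: 0.2 nM [125I]-metastin (45-54) displaced by test ligand (usually 0–10,000 nM) over 90 min at room temperature, pH 7.4 buffer with 0.1% BSA. Receptor source is crude membrane (5–10 μg) from tetracycline-induced Flp-In T-Rex 293 cells. Bound label filtered and counted; Ki from non-linear regression.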

Chain of human kisspeptin receptor (Q969F8 whole entry): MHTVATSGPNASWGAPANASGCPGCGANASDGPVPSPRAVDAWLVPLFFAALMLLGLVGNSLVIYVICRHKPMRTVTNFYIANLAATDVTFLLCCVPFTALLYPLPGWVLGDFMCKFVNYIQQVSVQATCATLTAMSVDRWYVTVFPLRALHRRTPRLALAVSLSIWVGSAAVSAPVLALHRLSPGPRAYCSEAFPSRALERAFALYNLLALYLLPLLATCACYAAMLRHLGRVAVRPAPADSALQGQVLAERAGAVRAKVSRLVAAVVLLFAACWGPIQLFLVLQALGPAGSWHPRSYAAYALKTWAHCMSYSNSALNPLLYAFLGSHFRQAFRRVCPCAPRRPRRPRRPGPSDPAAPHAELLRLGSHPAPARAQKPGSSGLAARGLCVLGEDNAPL

Structure (SMILES) | pKi
Cc1ccc(CNCC(=O)N2CCC(NC(=O)[C@H](CC(C)C)NC(=O)NNC(=O)[C@H](Cc3ccccc3)NC(=O)CN3CCN(CC(=O)O)CCN(CC(=O)O)CCN(CC(=O)O)CC3)(C(=O)N[C@@H](Cc3c[nH]c4ccccc34)C(N)=O)CC2)cc1F [Compound 49] ({DOTA}-F[azaGly]L[Api](Gly(N-(3-F-4-Me-benzyl)))W-NH2) | < 7.00
Cc1ccc(CNCC(=O)N2CCC(NC(=O)c3cc(OCCNC(=O)[C@H](Cc4ccccc4)NC(=O)CN4CCC(NC(=O)CN5CCN(CC(=O)O)CCN(CC(=O)O)CCN(CC(=O)O)CC5)CC4)cc(-c4ccccc4)c3)(C(=O)N[C@@H](Cc3c[nH]c4ccccc34)C(N)=O)CC2)cc1F [Compound 215] | < 7.00
CC(C)C[C@H](NC(=O)NNC(=O)[C@H](Cc1ccccc1)NC(=O)[C@@H](NC(=O)[C@H](CC(N)=O)NC(=O)[C@@H](Cc1ccc2ccccc2c1)NC(=O)[C@H](N)Cc1ccc(O)cc1)[C@@H](C)O)C(=O)NC1(C(=O)N[C@@H](Cc2ccccc2)C(N)=O)CCN(C(=N)N)CC1 [Compound 409] (H-[dY][d2Nal]NTF[azaGly]L[Api(1-amidino)]F-NH2) | > 8.00
Cc1ccc(CNCC(=O)N2CCC(NC(=O)c3ccnc(CNC(=O)[C@H](Cc4ccccc4)NC(=O)CCCCCNC(=O)CN4CCN(CC(=O)O)CCN(CC(=O)O)CCN(CC(=O)O)CC4)c3)(C(=O)N[C@@H](Cc3c[nH]c4ccccc34)C(N)=O)CC2)cc1F [Compound 136] | < 7.00
Cc1ccc(CNCC(=O)N2CCC(NC(=O)[C@H](CC(C)C)N[C@@H](CNC(=O)[C@H](Cc3ccccc3)NC(=O)CCCCCNC(=O)CN3CCN(CC(=O)O)CCN(CC(=O)O)CCN(CC(=O)O)CC3)C(F)(F)F)(C(=O)N[C@@H](Cc3c[nH]c4ccccc34)C(N)=O)CC2)cc1F [Compound 148] | 7.00 to 8.00
CNCC(=O)N1CCC(NC(=O)[C@H](CC(C)C)NC(=O)NNC(=O)[C@H](Cc2ccccc2)NC(=O)[C@@H](NC(=O)[C@H](CC(N)=O)NC(=O)[C@@H](Cc2ccc3ccccc3c2)NC(=O)[C@H](N)Cc2ccc(O)cc2)[C@@H](C)O)(C(=O)N[C@@H](Cc2ccccc2)C(N)=O)CC1 [Compound 406] (H-[dY][d2Nal]NTF[azaGly]L[Api](Sar)F-NH2) | > 8.00
CC(C)C[C@H](NC(=O)NNC(=O)[C@H](Cc1ccccc1)NC(=O)[C@@H](NC(=O)[C@H](CC(N)=O)NC(=O)[C@H](Cc1ccc2ccccc2c1)NC(=O)[C@@H](Cc1ccc(O)cc1)NC(=O)CCCCCNC(=O)CN1CCN(CC(=O)O)CCN(CC(=O)O)CCN(CC(=O)O)CC1)[C@@H](C)O)C(=O)NC1(C(=O)N[C@@H](Cc2ccc(C#N)cc2)C(N)=O)CCN(C(=N)N)CC1 [Compound 278] ({DOTA-Ahx}-[dY][2Nal]NTF[azaGly]L[Api(1-amidino)][Phe(4-CN)]-NH2) | > 8.00
Cc1ccc(CNCC(=O)N2CCC(NC(=O)[C@H](CC(C)C)NC(=O)NNC(=O)[C@H](Cc3ccc(-c4ccccc4)cc3)NC(=O)CN3CCC(NC(=O)CN4CCN(CC(=O)O)CCN(CC(=O)O)CCN(CC(=O)O)CC4)CC3)(C(=O)N[C@@H](Cc3c[nH]c4ccccc34)C(N)=O)CC2)cc1F [Compound 142] ({DOTA}-[X1][Bip][azaGly]L[Api](Gly(N-(3-F-4-Me-benzyl)))W-NH2) | > 8.00
CCCC[C@H](NC(=O)NNC(=O)[C@H](Cc1ccccc1)NC(=O)[C@@H](NC(=O)[C@H](CC(N)=O)NC(=O)[C@H](Cc1c2ccccc2cc2ccccc12)NC(=O)[C@@H](Cc1ccc(O)cc1)NC(=O)CN1CCN(CC(=O)O)CCN(CC(=O)O)CCN(CC(=O)O)CC1)[C@@H](C)O)C(=O)NC1(C(=O)N[C@@H](Cc2ccncc2)C(N)=O)CCN(C(=N)N)CC1 [Compound 123] ({DOTA}-[dY][Ala(9-anthryl)]NTF[azaGly][Nle][Api(1-amidino)][4Pal]-NH2) | < 7.00
Cc1ccc(CNCC(=O)N2CCC(NC(=O)[C@H](CC(C)C)NC(=O)NNC(=O)[C@H](Cc3ccccc3)NC(=O)[C@@H](NC(=O)[C@H](CC(N)=O)NC(=O)[C@@H](Cc3c[nH]c4ccccc34)NC(=O)[C@@H](Cc3ccc(O)cc3)NC(=O)CCCCCNC(=O)[C@@H](CS(=O)(=O)O)NC(=O)[C@@H](CS(=O)(=O)O)NC(=O)CN3CCN(CC(=O)O)CCN(CC(=O)O)CCN(CC(=O)O)CC3)[C@@H](C)O)(C(=O)N[C@@H](Cc3c[nH]c4ccccc34)C(N)=O)CC2)cc1F [Compound 120] ({DOTA}-[dCya][dCya][Ahx][dY][dW]NTF[azaGly]L[Api](Gly(N-(3-F-4-Me-benzyl)))W-NH2) | > 8.00

Other lines, results leading:

pKi | Structure (SMILES)
> 8.00 | CCCCCCCC(=O)N[C@H](Cc1ccc(O)cc1)C(=O)N[C@H](Cc1c[nH]c2ccccc12)C(=O)N[C@@H](CC(N)=O)C(=O)N[C@H](C(=O)N[C@@H](CC1CCCCC1)C(=O)NNC(=O)N[C@@H](CC(C)C)C(=O)NC1(C(=O)N[C@@H](Cc2c[nH]c3ccccc23)C(N)=O)CCN(C(=O)CNCc2ccc(C)c(F)c2)CC1)[C@@H](C)O [Compound 405] (Octanoyl-[dY][dW]NT[Cha][azaGly]L[Api](Gly(N-(3-F-4-Me-benzyl)))W-NH2)
> 8.00 | CC(C)C[C@H](NC(=O)NNC(=O)[C@H](Cc1ccccc1)NC(=O)[C@@H](NC(=O)[C@H](CC(N)=O)NC(=O)[C@@H](Cc1ccc2ccccc2c1)NC(=O)[C@H](N)Cc1ccc(O)cc1)[C@@H](C)O)C(=O)NC1(C(=O)N[C@@H](Cc2c[nH]c3ccccc23)C(N)=O)CCN(C(=N)N)CC1 [Compound 411] (H-[dY][d2Nal]NTF[azaGly]L[Api(1-amidino)]W-NH2)
> 8.00 | Cc1ccc(CNCC(=O)N2CCC(NC(=O)[C@H](CC(C)C)NC(=O)NNC(=O)[C@H](Cc3ccccc3)NC(=O)[C@@H](NC(=O)[C@H](CC(N)=O)NC(=O)[C@H](Cc3ccc(C(=O)c4ccccc4)cc3)NC(=O)[C@@H](Cc3ccc(O)cc3)NC(=O)CCCCCNC(=O)CN3CCN(CC(=O)O)CCN(CC(=O)O)CCN(CC(=O)O)CC3)[C@@H](C)O)(C(=O)N[C@@H](Cc3c[nH]c4ccccc34)C(N)=O)CC2)cc1F [Compound 364] ({DOTA-Ahx}-[dY][Bpa]NTF[azaGly]L[Api](Gly(N-(3-F-4-Me-benzyl)))W-NH2)
< 7.00 | COc1ccc(CNCC(=O)N2CCC(NC(=O)[C@@H](CC(C)C)NC(=O)NNC(=O)[C@H](Cc3ccccc3)NC(=O)[C@@H](NC(=O)[C@H](CC(N)=O)NC(=O)[C@H](CCC(=O)O)NC(=O)CN3CCN(CC(=O)O)CCN(CC(=O)O)CCN(CC(=O)O)CC3)[C@@H](C)O)(C(=O)N[C@@H](Cc3ccccc3)C(N)=O)CC2)cc1 [Compound 239] ({DOTA}-ENTF[azaGly][dL][Api](Gly(Nα-4-MeO-benzyl))F-NH2)
> 8.00 | Cc1ccc(CNCC(=O)N2CCC(NC(=O)[C@H](CC(C)C)NC(=O)NNC(=O)[C@H](Cc3ccccc3)NC(=O)CN3CCC(NC(=O)CN4CCN(CC(=O)O)CCN(CC(=O)O)CCN(CC(=O)O)CC4)CC3)(C(=O)N[C@@H](Cc3c[nH]c4ccccc34)C(N)=O)CC2)cc1F [Compound 28] ({DOTA}-[X1]F[azaGly]L[Api](Gly(N-(3-F-4-Me-benzyl)))W-NH2)
> 8.00 | Cc1ccc(CNCC(=O)N2CCC(NC(=O)[C@H](CC(C)C)NC(=O)NNC(=O)[C@H](Cc3ccccc3)NC(=O)[C@@H](NC(=O)[C@H](CC(N)=O)NC(=O)CCCCCNC(=O)CN3CCN(CC(=O)O)CCN(CC(=O)O)CCN(CC(=O)O)CC3)[C@@H](C)O)(C(=O)N[C@@H](Cc3c[nH]c4ccccc34)C(N)=O)CC2)cc1F [Compound 26] ({DOTA-Ahx}-NTF[azaGly]L[Api](Gly(N-(3-F-4-Me-benzyl)))W-NH2)
